Assay results reported in ChEMBL document CHEMBL2440112, “Structure-activity relationships of the aromatic site in novel anticonvulsant pyrrolo[1,2-a]pyrazine derivatives” (Bioorg Med Chem Lett, 2013).
Active and inactive are the calls of the source. No cut-off for these calls is given here.

Experiments:
Mus musculus [1] = test: Neurotoxicity in albino mouse assessed as minimal motor impairment at 100 mg/kg, ip after 0.25 hrs by rotorod test; format: toxicity, organism-based; design: dose 100 mg/kg, route intraperitoneal; conditions: in vivo
Mus musculus [2] = test: Neurotoxicity in albino mouse assessed as minimal motor impairment at 100 mg/kg, ip after 0.5 hrs by rotorod test; format: toxicity, organism-based; design: dose 100 mg/kg, route intraperitoneal; conditions: in vivo
Mus musculus [3] = test: Neurotoxicity in albino mouse assessed as minimal motor impairment at 100 mg/kg, ip after 4 hrs by rotorod test; format: toxicity, organism-based; design: dose 100 mg/kg, route intraperitoneal; conditions: in vivo
Rattus norvegicus [4] = test: Toxicity in albino Sprague-Dawley rat pilocarpine-induced status prevention model assessed as weight change in non-protected animal at 200 mg/kg, ip administered 30 mins before pilocarpine challenge; format: organism-based; design: dose 200 mg/kg, route intraperitoneal; conditions: in vivo, 0.5 h
Mus musculus [5] = test: Anticonvulsant activity in albino mouse assessed as protection against 6 Hz psychomotor seizure at 100 mg/kg, ip after 4 hrs by minimal clonic seizure test; format: functional, organism-based; design: dose 100 mg/kg
Mus musculus [6] = test: Anticonvulsant activity in ip dosed albino mouse assessed as time of peak effect for protection against 6 Hz psychomotor seizure by minimal clonic seizure test; format: functional
Mus musculus [7] = test: Anticonvulsant activity in albino mouse assessed as protection against maximal electroshock-induced seizures at 100 mg/kg, ip after 0.25 hrs; format: functional, organism-based; design: dose 100 mg/kg
Mus musculus [8] = test: Anticonvulsant activity in albino mouse assessed as protection against 6 Hz psychomotor seizure at 100 mg/kg, ip after 0.5 hrs by minimal clonic seizure test; format: functional, organism-based; design: dose 100 mg/kg
Rattus norvegicus [9] = test: Toxicity in albino Sprague-Dawley rat pilocarpine-induced status prevention model assessed as weight change in protected animal at 200 mg/kg, ip administered 30 mins before pilocarpine challenge; format: organism-based; design: dose 200 mg/kg, route intraperitoneal; conditions: in vivo, 0.5 h
Rattus norvegicus [10] = test: Anticonvulsant activity in albino Sprague-Dawley rat pilocarpine-induced status prevention model by measuring post-first stage 3 seizure at 200 mg/kg, ip administered 30 mins before pilocarpine challenge; format: functional, organism-based; design: dose 200 mg/kg
Mus musculus [11] = test: Anticonvulsant activity in albino mouse assessed as protection against maximal electroshock-induced seizures at 100 mg/kg, ip after 0.5 hrs; format: functional, organism-based; design: dose 100 mg/kg
Rattus norvegicus [12] = test: Neurotoxicity in albino Sprague-Dawley rat assessed as minimal motor impairment at 30 mg/kg, ip after 0.5 hrs by rotorod test; format: toxicity, organism-based; design: dose 30 mg/kg, route intraperitoneal; conditions: in vivo
Rattus norvegicus [13] = test: Neurotoxicity in albino Sprague-Dawley rat assessed as minimal motor impairment at 30 mg/kg, ip after 0.25 hrs by rotorod test; format: toxicity, organism-based; design: dose 30 mg/kg, route intraperitoneal; conditions: in vivo
Rattus norvegicus [14] = test: Neurotoxicity in albino Sprague-Dawley rat assessed as minimal motor impairment at 30 mg/kg, ip after 4 hrs by rotorod test; format: toxicity, organism-based; design: dose 30 mg/kg, route intraperitoneal; conditions: in vivo
Rattus norvegicus [15] = test: Neurotoxicity in albino Sprague-Dawley rat assessed as minimal motor impairment at 30 mg/kg, ip after 2 hrs by rotorod test; format: toxicity, organism-based; design: dose 30 mg/kg, route intraperitoneal; conditions: in vivo
Mus musculus [16] = test: Neurotoxicity in albino mouse assessed as minimal motor impairment at 100 mg/kg, ip after 1 hr by rotorod test; format: toxicity, organism-based; design: dose 100 mg/kg, route intraperitoneal; conditions: in vivo
Rattus norvegicus [17] = test: Anticonvulsant activity in albino Sprague-Dawley rat assessed as protection against maximal electroshock-induced seizures at 30 mg/kg, ip after 1 hr; format: functional, organism-based; design: dose 30 mg/kg
Rattus norvegicus [18] = test: Neurotoxicity in albino Sprague-Dawley rat assessed as minimal motor impairment at 30 mg/kg, ip after 1 hr by rotorod test; format: toxicity, organism-based; design: dose 30 mg/kg, route intraperitoneal; conditions: in vivo
Rattus norvegicus [19] = test: Anticonvulsant activity in albino Sprague-Dawley rat assessed as protection against maximal electroshock-induced seizures at 30 mg/kg, ip after 0.25 hrs; format: functional, organism-based; design: dose 30 mg/kg
Mus musculus [20] = test: Anticonvulsant activity in albino mouse assessed as protection against maximal electroshock-induced seizures at 100 mg/kg, ip after 4 hrs; format: functional, organism-based; design: dose 100 mg/kg
Mus musculus [21] = test: Anticonvulsant activity in albino mouse assessed as protection against 6 Hz psychomotor seizure at 100 mg/kg, ip after 0.25 hrs by minimal clonic seizure test; format: functional, organism-based; design: dose 100 mg/kg
Rattus norvegicus [22] = test: Toxicity in albino Sprague-Dawley rat pilocarpine-induced status prevention model assessed as weight change in non-protected animal at 200 mg/kg, ip followed by immediately administered pilocarpine; format: organism-based; design: dose 200 mg/kg, route intraperitoneal; conditions: in vivo
Mus musculus [23] = test: Anticonvulsant activity in albino mouse assessed as protection against 6 Hz psychomotor seizure at 100 mg/kg, ip after 2 hrs by minimal clonic seizure test; format: functional, organism-based; design: dose 100 mg/kg
Mus musculus [24] = test: Anticonvulsant activity in albino mouse assessed as protection against maximal electroshock-induced seizures at 100 mg/kg, ip after 1 hr; format: functional, organism-based; design: dose 100 mg/kg
Rattus norvegicus [25] = test: Anticonvulsant activity in albino Sprague-Dawley rat assessed as protection against maximal electroshock-induced seizures at 30 mg/kg, ip after 4 hrs; format: functional, organism-based; design: dose 30 mg/kg
Mus musculus [26] = test: Anticonvulsant activity in albino mouse assessed as protection against subcutaneous metrazole-induced seizures at 100 mg/kg, ip after 4 hrs; format: functional, organism-based; design: dose 100 mg/kg
Mus musculus [27] = test: Anticonvulsant activity in albino mouse assessed as protection against 6 Hz psychomotor seizure at 100 mg/kg, ip after 1 hr by minimal clonic seizure test; format: functional, organism-based; design: dose 100 mg/kg
Mus musculus [28] = species: Mus musculus; test: Protective index, ratio of TD50 for albino mouse minimal clonic seizure model to ED50 for albino mouse assessed as protection against 6 Hz psychomotor seizure; format: functional
Mus musculus [29] = test: Anticonvulsant activity in albino mouse assessed as protection against subcutaneous metrazole-induced seizures at 100 mg/kg, ip after 0.5 hrs; format: functional, organism-based; design: dose 100 mg/kg
Mus musculus [30] = test: Anticonvulsant activity in ip dosed albino mouse assessed as protection against 6 Hz psychomotor seizure by minimal clonic seizure test; format: functional
Rattus norvegicus [31] = test: Anticonvulsant activity in po dosed albino Sprague-Dawley rat assessed as protection against maximal electroshock-induced seizures after […] to 4 hrs; format: functional, organism-based
Rattus norvegicus [32] = test: Anticonvulsant activity in albino Sprague-Dawley rat assessed as protection against maximal electroshock-induced seizures at 30 mg/kg, ip after 0.5 hrs; format: functional, organism-based; design: dose 30 mg/kg
[33] = Neurotoxicity in ip dosed albino mouse minimal clonic seizure model assessed as minimal motor impairment by rotorod test; format: toxicity, organism-based; conditions: in vivo
Rattus norvegicus [34] = test: Anticonvulsant activity in albino Sprague-Dawley rat assessed as protection against maximal electroshock-induced seizures at 30 mg/kg, ip after 2 hrs; format: functional, organism-based; design: dose 30 mg/kg
Rattus norvegicus [35] = test: Toxicity in albino Sprague-Dawley rat pilocarpine-induced status prevention model assessed as weight change in protected animal at 200 mg/kg, ip followed by immediately administered pilocarpine; format: organism-based; design: dose 200 mg/kg, route intraperitoneal; conditions: in vivo
Rattus norvegicus [36] = test: Anticonvulsant activity in albino Sprague-Dawley rat pilocarpine-induced status prevention model by measuring post-first stage 3 seizure at 200 mg/kg, ip followed by immediately administered pilocarpine; format: functional, organism-based; design: dose 200 mg/kg
Mus musculus [37] = test: Neurotoxicity in albino mouse minimal clonic seizure model assessed as minimal motor impairment at 100 mg/kg, ip after 2 hrs by rotorod test; format: toxicity, organism-based; design: dose 100 mg/kg, route intraperitoneal; conditions: in vivo
Mus musculus [38] = test: Neurotoxicity in albino mouse minimal clonic seizure model assessed as minimal motor impairment at 100 mg/kg, ip after 4 hrs by rotorod test; format: toxicity, organism-based; design: dose 100 mg/kg, route intraperitoneal; conditions: in vivo
Mus musculus [39] = test: Neurotoxicity in albino mouse minimal clonic seizure model assessed as minimal motor impairment at 100 mg/kg, ip after 1 hr by rotorod test; format: toxicity, organism-based; design: dose 100 mg/kg, route intraperitoneal; conditions: in vivo
Mus musculus [40] = test: Neurotoxicity in albino mouse minimal clonic seizure model assessed as minimal motor impairment at 100 mg/kg, ip after 0.25 hrs by rotorod test; format: toxicity, organism-based; design: dose 100 mg/kg, route intraperitoneal; conditions: in vivo
Mus musculus [41] = test: Anticonvulsant activity in albino mouse assessed as protection against subcutaneous metrazole-induced seizures at 100 mg/kg, ip after 1 hr; format: functional, organism-based; design: dose 100 mg/kg
Mus musculus [42] = test: Neurotoxicity in albino mouse minimal clonic seizure model assessed as loss of righting reflex at 100 mg/kg, ip after 0.25 hrs by rotorod test; format: toxicity, organism-based; design: dose 100 mg/kg, route intraperitoneal; conditions: in vivo
Mus musculus [43] = test: Neurotoxicity in albino mouse minimal clonic seizure model assessed as minimal motor impairment at 100 mg/kg, ip after 0.5 hrs by rotorod test; format: toxicity, organism-based; design: dose 100 mg/kg, route intraperitoneal; conditions: in vivo
Mus musculus [44] = test: Anticonvulsant activity in albino mouse assessed as protection against subcutaneous metrazole-induced seizures at 100 mg/kg, ip after 0.25 hrs; format: functional, organism-based; design: dose 100 mg/kg
Mus musculus [45] = test: Anticonvulsant activity in albino mouse assessed as protection against subcutaneous metrazole-induced seizures at 300 mg/kg, ip after 0.5 hrs; format: functional, organism-based; design: dose 300 mg/kg
Mus musculus [46] = test: Toxicity in subcutaneous metrazole treated albino mouse assessed as myoclonic jerks at 100 mg/kg, ip after 0.5 hrs; format: organism-based; design: dose 100 mg/kg; conditions: in vivo, sc

Row | SMILES | Activity (Mus musculus [1]) | Activity (Mus musculus [2]) | Activity (Mus musculus [3]) | Activity (Mus musculus [5]) | Activity (Mus musculus [7]) | Activity (Mus musculus [8]) | Activity (Mus musculus [11]) | Activity (Rattus norvegicus [12]) | Activity (Rattus norvegicus [13]) | Activity (Rattus norvegicus [14]) | Activity (Rattus norvegicus [15]) | Activity (Mus musculus [16]) | Activity (Mus musculus [20]) | Activity (Mus musculus [21]) | Activity (Mus musculus [23]) | Activity (Mus musculus [24]) | Activity (Mus musculus [26]) | Activity (Mus musculus [27]) | Activity (Mus musculus [29]) | Activity (Rattus norvegicus [31]) | other results
1 | O=C1NC(=O)[C@@H]2CCCN2[C@H]1c1ccc(Cl)cc1 | Non-toxic | Non-toxic | Non-toxic | inactive | Active | Active | inactive | Non-toxic | Non-toxic | Non-toxic | Non-toxic | Non-toxic | inactive | Active | Active | inactive | inactive | Active | inactive | inactive | Activity (Rattus norvegicus [4]): -31.4 g; Time (Mus musculus [6]): 0.25 h; Activity (Rattus norvegicus [9]): -30 g; Activity (Rattus norvegicus [10]): inactive; Activity (Rattus norvegicus [17]): inactive; Activity (Rattus norvegicus [18]): Non-toxic; Activity (Rattus norvegicus [19]): Active; Activity (Rattus norvegicus [22]): 15 g; Activity (Rattus norvegicus [25]): inactive; Ratio TD50/ED50 (Mus musculus [28]): 6.6; ED50 (Mus musculus [30]): 32.2 mg/kg; Activity (Rattus norvegicus [32]): Active; TD50 [33]: 212 mg/kg; Activity (Rattus norvegicus [34]): inactive; Activity (Rattus norvegicus [35]): -3.6 g; Activity (Rattus norvegicus [36]): Active
2 | O=C1NC(=O)[C@@H]2CCCN2[C@H]1c1cccc(Cl)c1 | Toxic | Non-toxic | Non-toxic | inactive | Active | Active | Active |  |  |  |  | Non-toxic | inactive | Active | inactive | Active | inactive | Active | inactive | inactive | Activity (Mus musculus [37]): Non-toxic; Activity (Mus musculus [38]): Non-toxic; Activity (Mus musculus [39]): Non-toxic; Activity (Mus musculus [40]): Toxic; Activity (Mus musculus [41]): inactive; Activity (Mus musculus [42]): Toxic; Activity (Mus musculus [43]): Toxic; Activity (Mus musculus [44]): Active
3 | Cl.O=C1NC(=O)[C@@H]2CCCN2[C@H]1c1ccccc1Cl | Non-toxic | Non-toxic | Non-toxic |  | inactive |  | inactive |  |  |  |  | Non-toxic | inactive |  |  | inactive | inactive |  | inactive | inactive | Activity (Mus musculus [45]): Active
4 | Cc1cccc([C@H]2C(=O)NC(=O)[C@@H]3CCCN23)c1 | Toxic | Non-toxic | Non-toxic | inactive | Active | Active | Active | Non-toxic | Non-toxic | Non-toxic | Non-toxic | Non-toxic | inactive | Active | inactive | inactive | inactive | inactive | inactive | inactive | Activity (Mus musculus [37]): Non-toxic; Activity (Mus musculus [38]): Non-toxic; Activity (Rattus norvegicus [17]): inactive; Activity (Rattus norvegicus [18]): Non-toxic; Activity (Rattus norvegicus [19]): inactive; Activity (Mus musculus [39]): Non-toxic; Activity (Mus musculus [40]): Toxic; Activity (Mus musculus [41]): inactive; Activity (Rattus norvegicus [25]): inactive; Activity (Mus musculus [43]): Non-toxic; Activity (Mus musculus [44]): Active; Activity (Rattus norvegicus [32]): inactive; Activity (Rattus norvegicus [34]): inactive
5 | O=C1NC(=O)[C@@H]2CCCN2[C@H]1c1ccc(Cl)c(Cl)c1 | Non-toxic | Non-toxic | Non-toxic |  | inactive |  | inactive |  |  |  |  | Non-toxic | inactive |  |  | inactive | inactive |  | Active | inactive | Activity (Mus musculus [46]): Toxic
